# Molecular target: T1, USP28 (His-tagged USP28-FL-mammalian) (Homo sapiens, UniProt Q96RU2)
# T1 construct: Expression of USP28 (1-1077)-TEV-6*His (pTT5 vector); made in house; host or cells: Expi293f cells (pTT5 vector)
# T1 sequence (Q96RU2 1-1077): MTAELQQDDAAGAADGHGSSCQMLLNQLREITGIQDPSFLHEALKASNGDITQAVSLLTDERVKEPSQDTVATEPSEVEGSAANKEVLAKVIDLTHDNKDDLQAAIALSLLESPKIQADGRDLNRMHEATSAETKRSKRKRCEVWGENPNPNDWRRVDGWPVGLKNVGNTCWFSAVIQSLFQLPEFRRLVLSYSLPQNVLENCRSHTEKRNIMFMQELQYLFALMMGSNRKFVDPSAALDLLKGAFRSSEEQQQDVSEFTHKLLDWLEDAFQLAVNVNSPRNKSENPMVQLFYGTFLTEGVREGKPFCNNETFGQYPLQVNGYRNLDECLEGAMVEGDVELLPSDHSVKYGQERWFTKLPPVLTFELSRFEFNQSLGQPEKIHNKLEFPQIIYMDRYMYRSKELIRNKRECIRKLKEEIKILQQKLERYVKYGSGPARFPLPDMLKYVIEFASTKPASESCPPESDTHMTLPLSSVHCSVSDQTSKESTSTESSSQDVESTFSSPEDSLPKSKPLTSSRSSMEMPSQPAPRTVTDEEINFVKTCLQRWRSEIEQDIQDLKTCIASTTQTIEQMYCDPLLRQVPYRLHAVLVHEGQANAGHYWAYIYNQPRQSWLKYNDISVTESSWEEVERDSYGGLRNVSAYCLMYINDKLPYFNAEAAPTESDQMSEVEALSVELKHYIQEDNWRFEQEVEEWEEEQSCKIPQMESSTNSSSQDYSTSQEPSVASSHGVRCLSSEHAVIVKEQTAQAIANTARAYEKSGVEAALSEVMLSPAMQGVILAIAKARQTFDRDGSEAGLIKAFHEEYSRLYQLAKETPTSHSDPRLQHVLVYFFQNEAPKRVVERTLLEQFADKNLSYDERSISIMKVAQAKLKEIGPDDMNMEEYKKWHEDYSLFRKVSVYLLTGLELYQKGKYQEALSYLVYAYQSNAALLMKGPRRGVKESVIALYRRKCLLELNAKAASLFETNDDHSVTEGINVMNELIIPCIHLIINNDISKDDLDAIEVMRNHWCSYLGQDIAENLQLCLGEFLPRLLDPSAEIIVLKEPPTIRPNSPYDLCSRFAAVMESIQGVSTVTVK
# Assay: Ubiquitin-Rhodamine 110 Assay for USP28 Activity, Example A-1(a)
# Assay type: biochemical
# Conditions: Ubiquitin-Rhodamine 110 assay, Example A-1(a); read-out: USP28 A-1(a) IC50 range
# Outline: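 Full-length His-tagged USP28 (1-1077, Expi293F-expressed; […]) was preincubated 30 min with compound (25 μM–1.3 nM, 10-point 3-fold) in 20 mM Tris-HCl pH 8.0, 3 mM BME, 0.03% BGG, 0.01% Triton X-100. Ub-Rh110 (25 nM) was then added for 45 min at room temperature, stopped with citric acid, and read by fluorescence (485/535 nm).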
row,Structure (SMILES),IC50
1,"CO[C@H]1CN(c2cc3c(cc2C#N)C[C@@H](NC(=O)c2sc4nc(C)ccc4c2N)CC3)C[C@@H]1N [Example 201, 3-amino-N-[(2S)-6-[(3S,4S)-3-amino-4-methoxypyrrolidin-1-yl]-7-cyano-1,2,3,4-tetrahydronaphthalen-2-yl]-6-methylthieno[2,3-b]pyridine-2-carboxamide]",1 to 50 nM
2,"Cc1ccc2c(N)c(C(=O)N[C@H]3COc4cc(N5C[C@H](OC(C)C)[C@@H](N)C5)ccc4C3)sc2n1 [Example 202, 3-amino-N-[(3R)-7-[(3S,4S)-3-amino-4-(propan-2-yloxy)pyrrolidin-1-yl]-3,4-dihydro-2H-1-benzopyran-3-yl]6-methylthieno[2,3-b]pyridine-2-carboxamide]",1 to 50 nM
3,"CO[C@H]1CN(c2ccc3c(n2)CC[C@H](NC(=O)c2sc4nc(C)c(F)cc4c2N)C3)C[C@@H]1N [Example 203, 3-amino-N-[(6S)-2-[(3S,4S)-3-amino-4-methoxypyrrolidin-1-yl]-5,6,7,8-tetrahydroquinolin-6-yl}-5-fluoro-6-methylthieno[2,3-b]pyridine-2-carboxamide]",50 to 200 nM
4,"Cc1nc2sc(C(=O)N[C@H]3CCc4nc(N5CCNCC5)ccc4C3)c(N)c2cc1F [Example 204, 3-amino-5-fluoro-6-methyl-N-[(6S)-2-(piperazin-1-yl)-5,6,7,8-tetrahydroquinolin-6-yl]thieno[2,3-b]pyridine-2-carboxamide]",1 to 50 nM
5,"Cc1ccc2c(N)c(C(=O)N[C@H]3Cc4ccc(N5CCNCC5)nc4[C@@H](C)C3)sc2n1 [Example 206, 3-amino-6-methyl-N-[(6R,8S)-8-methyl-2-(piperazin-1-yl)-5,6,7,8-tetrahydroquinolin-6-yl]thieno[2,3-b]pyridine-2-carboxamide]",50 to 200 nM
6,"Cc1ccc2c(N)c(C(=O)N[C@@H]3Cc4ccc(N5CCNCC5)nc4[C@H](C)C3)sc2n1 [Example 207, 3-amino-6-methyl-N-[(6S,8R)-8-methyl-2-(piperazin-1-yl)-5,6,7,8-tetrahydroquinolin-6-yl]thieno[2,3-b]pyridine-2-carboxamide]",200 to 2000 nM
7,"Cc1ccc2c(N)c(C(=O)N[C@H]3Cc4ccc(N5CCNCC5)nc4[C@H](C)C3)sc2n1 [Example 208, 3-amino-6-methyl-N-[(6R,8R)-8-methyl-2-(piperazin-1-yl)-5,6,7,8-tetrahydroquinolin-6-yl]thieno[2,3-b]pyridine-2-carboxamide]",1 to 50 nM
8,"Cc1ccc2c(N)c(C(=O)N[C@H]3COc4cc(N5C6CNCC5COC6)ccc4C3)sc2n1 [Example 209, 3-amino-6-methyl-N-[(3R)-7-{3-oxa-7,9-diazabicyclo[3.3.1]nonan-9-yl}-3,4-dihydro-2H-1-benzopyran-3-yl]thieno[2,3-b]pyridine-2-carboxamide]",1 to 50 nM
9,"CO[C@@]1(C)CN(c2ccc3c(n2)CC[C@H](NC(=O)c2sc4nc(C)ccc4c2N)C3)C[C@@H]1N [Example 210, 3-amino-N-[(6S)-2-[(3S,4S)-4-amino-3-methoxy-3-methylpyrrolidin-1-yl]-5,6,7,8-tetrahydroquinolin-6-yl]-6-methylthieno[2,3-b]pyridine-2-carboxamide]",50 to 200 nM
10,"CO[C@]1(C)CN(c2ccc3c(n2)CC[C@H](NC(=O)c2sc4nc(C)ccc4c2N)C3)C[C@H]1N [Example 211, 3-amino-N-[(6S)-2-[(3R,4R)-4-amino-3-methoxy-3-methylpyrrolidin-1-yl]-5,6,7,8-tetrahydroquinolin-6-yl]-6-methylthieno[2,3-b]pyridine-2-carboxamide]",50 to 200 nM
11,"CN[C@H]1CN(c2ccc3c(c2)OC[C@H](NC(=O)c2sc4nc(C)ccc4c2N)C3)C[C@@H]1OC [Example 212, 3-amino-N-[(3R)-7-[(3S,4S)-3-methoxy-4-(methylamino)pyrrolidin-1-yl]-3,4-dihydro-2H-1-benzopyran-3-yl]-6-methylthieno[2,3-b]pyridine-2-carboxamide]",1 to 50 nM
12,"CO[C@H]1CN(c2ccc3c(c2)OC[C@H](NC(=O)c2sc4nc(C)ccc4c2N)C3)C[C@@H]1NC(C)=O [Example 213, 3-amino-N-[(3R)-7-[(3S,4S)-3-acetamido-4-methoxypyrrolidin-1-yl]-3,4-dihydro-2H-1-benzopyran-3-yl]-6-methylthieno[2,3-b]pyridine-2-carboxamide]",50 to 200 nM
13,"Cc1ccc2c(N)c(C(=O)N[C@H]3COc4cc(N5C[C@H](N)C(C)(C)C5)ccc4C3)sc2n1 [Example 214, 3-amino-N-[(3R)-7-[(4R)-4-amino-3,3-dimethylpyrrolidin-1-yl]-3,4-dihydro-2H-1-benzopyran-3-yl]-6-methylthieno[2,3-b]pyridine-2-carboxamide]",1 to 50 nM
14,"Cc1ccc2c(N)c(C(=O)N[C@H]3COc4cc(N5C[C@@H](N)C(C)(C)C5)ccc4C3)sc2n1 [Example 215, 3-amino-N-[(3R)-7-[(4S)-4-amino-3,3-dimethylpyrrolidin-1-yl]-3,4-dihydro-2H-1-benzopyran-3-yl]-6-methylthieno[2,3-b]pyridine-2-carboxamide]",1 to 50 nM
15,"Cc1ccc2c(N)c(C(=O)N[C@H]3CCc4nc(N5CC[C@H]6CNC[C@H]65)ccc4C3)sc2n1 [Example 216, N-[(6S)-2-[(3aS,6aS)-octahydropyrrolo[2,3-c]pyrrol-1-yl}-5,6,7,8-tetrahydroquinolin-6-yl]-3-amino-6-methylthieno[2,3-b]pyridine-2-carboxamide]",1 to 50 nM
16,"Cc1ccc2c(N)c(C(=O)N[C@H]3CCc4nc(N5CC[C@@H]6CNC[C@@H]65)ccc4C3)sc2n1 [Example 217, N-[(6S)-2-[(3aR,6aR)-octahydropyrrolo[2,3-c]pyrrol-1-yl]-5,6,7,8-tetrahydroquinolin-6-yl]-3-amino-6-methylthieno[2,3-b]pyridine-2-carboxamide]",1 to 50 nM
17,"Cc1cc(C)c2c(N)c(C(=O)N[C@H]3CCc4nc(N5CC[C@H]6CNC[C@H]65)ccc4C3)sc2n1 [Example 218, N-[(6S)-2-[(3aS 6aS)-octahydropyrrolo[2,3-c]pyrrol-1-yl]-5,6,7,8-tetrahydroquinolin-6-yl]-3-amino-4,6-dimethylthieno[2,3-b]pyridine-2-carboxamide]",50 to 200 nM
18,"Cc1cc(C)c2c(N)c(C(=O)N[C@H]3CCc4nc(N5CC[C@@H]6CNC[C@@H]65)ccc4C3)sc2n1 [Example 219, N-[(6S)-2-[(3aR,6aR)-octahydropyrrolo[2,3-c]pyrrol-1-yl]-5,6,7,8-tetrahydroquinolin-6-yl]-3-amino-4,6-dimethylthieno[2,3-b]pyridine-2-carboxamide]",1 to 50 nM
19,"Cc1ccc2c(N)c(C(=O)N[C@H]3COc4cc(N5CC[C@H]6CNC[C@H]65)cc(F)c4C3)sc2n1 [Example 220, N-[(3R)-7-[(3aS,6aS)-octahydropyrrolo[2,3-c]pyrrol-1-yl]-5-fluoro-3,4-dihydro-2H-1-benzopyran-3-yl]-3-amino-6-methylthieno[2,3-b]pyridine-2-carboxamide]",1 to 50 nM
20,"Cc1ccc2c(N)c(C(=O)N[C@H]3COc4cc(N5CC[C@@H]6CNC[C@@H]65)cc(F)c4C3)sc2n1 [Example 221, N-[(3R)-7-[(3aR,6aR)-octahydropyrrolo[2,3-c]pyrrol-1-yl]-5-fluoro-3,4-dihydro-2H-1-benzopyran-3-yl]-3-amino-6-methylthieno[2,3-b]pyridine-2-carboxamide]",1 to 50 nM
21,"Cc1ccc2c(N)c(C(=O)N[C@H]3COc4cc(N5CC[C@H]6CCNC[C@H]65)ccc4C3)sc2n1 [Example 224, N-[(3R)-7-[(3aR,7aS)-octahydro-1H-pyrrolo[2,3-c]pyridin-1-yl]-3,4-dihydro-2H-1-benzopyran-3-yl]-3-amino-6-methylthieno[2,3-b]pyridine-2-carboxamide]",1 to 50 nM
22,Cc1ccc2c(N)c(C(=O)N[C@H]3COc4cc(N5CC[C@@H]6CCNC[C@@H]65)ccc4C3)sc2n1 [Example 225],1 to 50 nM
23,"Cc1cc(C)c2c(N)c(C(=O)N[C@H]3COc4cc(N5CC[C@H]6CNC[C@H]65)ccc4C3)sc2n1 [Example 226, N-[(3R)-7-[(3aS,6aS)-octahydropyrrolo[2,3-c]pyrrol-1-yl]-3,4-dihydro-2H-1-benzopyran-3-yl]-3-amino-4,6-dimethylthieno[2,3-b]pyridine-2-carboxamide]",1 to 50 nM

# — patent US11524966B1 (Valo Early Discovery, Inc., priority 2017, dated 2022)
